≈ marks a conversion by molar mass, not a printed value. Counter-ions that a name gives are not always drawn.

Holding throughout (assay type): cell-based
One experiment relates to human lung (A549). The experiment can be described thus: In vitro microdilution inhibition, human lung A549. To be noted: A549, 72 hours, 50% of cells killed. The source says:
(§1) As shown in Table III the compounds of the present invention exert an in vitro antitumor effect. The following cells lines were employed: human lung (A549); resistant human lung with low topo II activity (A549-VP); murine melanoma (B16); human colon tumor (HCT116); human colon tumor with elevated p170 levels (HCTVM); human colon tumor with low topo II activity (HCTVP); and another human colon carcinoma cell line (Moser). In the Table, the designation "NT" indicates the compound was not tested against the specified cell line. The cell lines were maintained in continuous culture at 37°, 5% CO2 and high humidity. Cells were harvested in log phase growth and suspended at concentration of 25,000 cells/mL. A […] aliquot was then added to each well (i.e., 3,750 cells per well) of a 96-well flat bottom plate and the cells were allowed to attach over a 24 hour period. After this 24 hour incubation, a 50 μL sample of the specified compound was added to the first (top) well of each column, and the remaining wells of each column serially diluted, 1:4, and allowed to incubate for 72 hours at 37° C., 5% CO2 and high humidity. Following incubation, 50 μL of freshly prepared stain solution was added to each well. After a 3 hour incubation at room temperature, absorbance was read at 450 nm on a microplate reader to determine the compound concentration at which 50% of the cells were killed, such concentration referred to as the "IC50 ".

Experiment [1] relates to resistant human lung with low topo II activity (A549-VP). The experiment can be described thus: In vitro microdilution inhibition, resistant human lung A549-VP. To be noted: A549VP, 72 hours, 50% of cells killed.
Text: as §1

The next experiment relates to murine melanoma (B16). As to the kind of experiment: In vitro microdilution inhibition, B16. To be noted: Mus musculus; B16, 72 hours, 50% of cells killed.
Text: as §1

Experiment [2] concerns human colon tumor (HCT116). As to the kind of experiment: In vitro microdilution inhibition, HCT116. To be noted: HCT-116, 72 hours, 50% of cells killed.
Text: as §1

Experiment [3] relates to human colon tumor with elevated p170 levels (HCTVM). The experiment can be described thus: In vitro microdilution inhibition, HCTVM. To be noted: 72 hours, 50% of cells killed.
Text: as §1

Experiment [4] has as its system human colon tumor with low topo II activity (HCTVP). The experiment can be described thus: In vitro microdilution inhibition, HCTVP. To be noted: 72 hours, 50% of cells killed.
Text: as §1

For the compound `COCOc1cccc2c1C1(CC2)C(=O)c2c(O)c3c(c(O)c2C1=O)C(=O)C(N)=CC3=O` (stereo not drawn) [Example 14, 6-amino-2',3'-dihydro-7'-(methoxymethoxy)-1H-indene-1'-spiro-2-[4,9-dihydroxy-2H-benz[f]-indene-1,3,5,8-tetrone]], the 50% inhibitory concentration (IC50) was < 0.03 µg/mL in the experiment on human lung (A549); 0.03 µg/mL (≈ 0.0689 µM) in experiment [1]; 0.03 µg/mL (≈ 0.0689 µM) in the experiment on murine melanoma (B16); 0.03 µg/mL (≈ 0.0689 µM) in experiment [2]; 0.03 µg/mL (≈ 0.0689 µM) in experiment [3]; 0.03 µg/mL (≈ 0.0689 µM) in experiment [4].

With `COCOc1cccc2c1C1(CC2)C(=O)c2c(O)c3c(c(O)c2C1=O)C(=O)C(Nc1ccccc1)=CC3=O` (stereo not drawn) [Example 18, 2',3'-Dihydro-7'-(methoxymethoxy)-1H-indene-1,-spiro-2-[6-(phenylamino)-4,9-dihydroxy-2H-benz[f]indene-1,3,5,8-tetrone]], the IC50 is 0.08 µg/mL (≈ 0.156 µM) in the experiment with human lung (A549); 0.06 µg/mL (≈ 0.117 µM) in experiment [1]; 0.08 µg/mL (≈ 0.156 µM) in the experiment with murine melanoma (B16); 0.09 µg/mL (≈ 0.176 µM) in experiment [2]; 0.11 µg/mL (≈ 0.215 µM) in experiment [3]; 0.07 µg/mL (≈ 0.137 µM) in experiment [4].

Consider `COCOc1cccc2c1C1(CC2)C(=O)c2c(O)c3c(c(O)c2C1=O)C(=O)C(NCC(=O)O)=CC3=O` (stereo not drawn) [Example 29, 2',3'-Dihydro-7'-(methoxymethoxy)-1H-indene-1'-spiro-2-[6-((carboxymethyl)amino)-4,9-dihydroxy-2H-benz[f]indene-1,3,5,8-tetrone]sodium salt], for which the IC50 is 1.2 µg/mL in the experiment with human lung (A549); 1.6 µg/mL in experiment [1]; 0.8 µg/mL in the experiment on murine melanoma (B16); 0.9 µg/mL in experiment [2]; 1 µg/mL in experiment [3]; 1 µg/mL in experiment [4].

As to `CCSC1=C(SCC)C(=O)c2c(O)c3c(c(O)c2C1=O)C(=O)C1(CCc2cccc(OCOC)c21)C3=O` [Example 30], the IC50 with human lung (A549) is 7 µg/mL (≈ 12.9 µM); in experiment [1], > 16 µg/mL; in the experiment with murine melanoma (B16) it was 1.8 µg/mL (≈ 3.33 µM); in experiment [2] it was 1.2 µg/mL (≈ 2.22 µM); in experiment [3], 3 µg/mL (≈ 5.55 µM); in experiment [4], 2.2 µg/mL (≈ 4.07 µM).

Regarding `COCOc1cccc2c1C1(CC2)C(=O)c2c(O)c3c(c(O)c2C1=O)C(=O)C(Sc1ccccc1)=C(Sc1ccccc1)C3=O` [Example 31, 2',3'-Dihydro-7'-(methoxymethoxy)-1H-indene-1'-spiro-2-[6,7-di(phenylmercapto)-4,9-dihydroxy-2H-benz[f]indene-I,3,5,8-tetrone]], the IC50 (with human lung (A549); in experiment [1]; in the experiment on murine melanoma (B16); in experiment [2]; in experiment [3]; in experiment [4]) was > 16 µg/mL throughout.

Take `O=C1C(Sc2ccccc2)=C(Sc2ccccc2)C(=O)c2c(O)c3c(c(O)c21)C(=O)C1(CCc2cccc(O)c21)C3=O` [Example 32, 2',3'-Dihydro-7'-hydroxy-1H-indene-1'-spiro-2-[4,9-dihydroxy-6,7-di(phenylmercapto)-2H-benz[f]indene-1,3,5,8-tetrone]]: the IC50 (in the experiment on human lung (A549); in experiment [1]; in the experiment with murine melanoma (B16); in experiment [2]; in experiment [3]; in experiment [4]) was > 16 µg/mL throughout.

(Values after patent publication US5166208A, “Fredericamycin A derivatives” (Boston College, priority 1991, dated 1992).)
